Source: US4826845A, “3(2H)-pyridazinones and pharmaceutical compositions thereof” (Richter Gedeon Vegyeszeti Gyar T.R., priority 1985, dated 1989)
Counter-ions that a name gives are not always drawn. Like-named read-outs stand apart in the source and are kept apart here.

How the values were obtained:
anaesthetized cats = test: Measurement of the hypotensive effect on anaesthetized cats (i.v. screening); assay type: in vivo, cat; settings: for Mean arterial pressure decrease: anaesthetized cats; for blood pressure lowering action (in words): intravenous, summary of Table 1
Description: A tube was introduced into the trachea of cats anaesthetized by the intraperitoneal (i.p.) administration of 35 mg/kg of sodium pentobarbital whereby the spontaneous breathing was supported. On the one side of the animals, the femoral artery and vein were exposed and a polyethylene cannula was introduced in both vessels each. The substances to be tested were administered through the venous cannula. The mean arterial blood pressure was measured by connecting the arterial cannula with a Statham P 23 Db pressure transducer and electromanometer.
As a first screening dose, 5 mg/kg of the compounds to be tested were intravenously (i.v.) administered.

[1] = tested on: adrenergic receptor-mediated calcium channel; test: Calcium-antagonism on isolated portal vein: adrenergic receptor-mediated calcium channel; assay type: cell-based; settings: rat portal vein, 1×10^-5 mole norepinephrine, 37° C.; read-out: Inhibition of the calcium channel, adrenergic receptor-mediated, IC50
Description: (§1) The calcium-antagonism of the compounds of the invention was studied on an isolated vessel preparation based on the work of M. Fiol de Cuneo et al. [Arch. Int. Pharmacodyn.
(§2) Male CFY rats with a body-weight of 150 to 200 g were bled by decapitation and the portal vein was immediately prepared starting from the hepatic portal. The vessel was longitudinally incised, bound to a transducer registering the contractions and incubated under a tension of 1 g at 37° C. in a calcium-free Krebs-Ringer bicarbonate solution aerated with carbogen. After an equilibration lasting for 30 minutes, the functioning of the receptor-mediated and the K^+ -depolarisation-mediated calcium channels, respectively, were investigated.
(§3) All measurements were carried out at 37° C. while bubbling through carbogen.

[2] = tested on: pre- and postsynaptic alpha receptors; test: Action on the pre- and postsynaptic adrenergic alpha receptors on the stimulated mouse vas deferens; assay type: cell-based; settings: concentration 10^-7 mole
Description: The method of Hughes et al. [Brit. J. Phamacol. 51, pp. 139-140P (1975)] was used. The preparations suspended in a modified Krebs solution at 31° C. were excited by the field stimulation method [rectangular paired impulses with 1 msec interval, supramaximal potential (70 to 75 V=8 to 9 V/cm) and 100 msec impulse interval, pairs repeated in each 10 sec]. After stimulation, norepinephrine (NE) was dropped into the organ bath and a dose-response curve was taken up. Thus, the effect of both the endogenous norepinephrine liberated by stimulation and the exogenous norepinephrine could be studied before and after adding the substance to be tested.

[3] = biological target: T1, potential-mediated calcium channel (Rattus norvegicus, UniProt P22002); test: Calcium-antagonism on isolated portal vein: potential-mediated calcium channel; assay type: cell-based
T1 construct: from tissue; host or cells: isolated rat portal vein
Description: as §1, §2
For investigating the potential-mediated calcium channel, the vein placed in the calcium-free Krebs-Ringer solution was washed by adding and then by removing 80 millimoles of potassium chloride while maintaining the isotania until no contraction appeared on repeatedly adding potassium chloride.
as §3

conscious SH rats [4] = test: Antihypertensive effect on conscious, spontaneously hypertensive (SH) rats after oral administration; assay type: in vivo, rat
Excerpt: The systolic blood pressure was indirectly measured by the tail-cuff method. The compounds to be tested were introduced orally (p.o.) to the animals. The blood pressure measurements were made by using a 5-channel automatized equipment.

[5] = tested on: pressor (blood pressure increasing) effect of epinephrine; test: Inhibition of the pressor effect of epinephrine; settings: in vivo
[6] = tested on: postsynaptic alpha1 receptor; test: Kinetic analysis on rabbit aorta strip preparation: postsynaptic alpha1 receptor antagonism; assay type: cell-based
Description: Male rabbits with a body-weight of 3 to 3.5 kg were used for these experiments. […] A dose response curve was plotted by using norepinephrine and a dose selected from the steepest interval of the curve was added repeatedly to the bath until obtaining equal responses. Then, the compound to be tested was added and after 5 minutes, the dose series of norepinephrine was repeated. The extent of the inhibition was expressed as percentage.

anaesthetized dogs = test: Hypotensive and heart rate effects on anaesthetized dogs after intravenous or intraduodenal administration; assay type: in vivo, Beagle dog
Description: (§4) Beagle dogs of both sexes were anaesthetized by the intravenous administration of 40 mg/kg of sodium pentobarbital. A cannula was introduced to the femoral artery and vein each on one side for the intravenous administration of the compounds to be tested as well as for measuring the blood pressure.
In an other series of these experiments, the substances were administered through a duodenal tube. Similarly to the experiments carried out on cats, the systemic arterial blood pressure was measured by using an electromanometer and the cardiotachometer was triggered by the heart rate wave sign. […]

conscious SH rats [7] = test: Antihypertensive effect on conscious SH rats after acute oral treatment; assay type: in vivo, rat; settings: SH rats
Excerpt: (§5) These experiments were accomplished on conscious spontaneously hypertensive (SH) and renally hypertensive rats.
(§6) The systolic blood pressure and heart rate of the animals were indirectly measured by using the tail-cuff method by means of a 5- channel automatized equipment.

[8] = tested on: conscious renal hypertensive rats; test: Antihypertensive effect on conscious renal hypertensive rats after acute oral treatment; assay type: in vivo, rat; settings: 1.25 mg/kg p.o.
Excerpt: as §5, §6

renal artery = test: Renal arterial vascular resistance in anaesthetized dogs; assay type: in vivo, Beagle dog; settings: 1.0 mg/kg intraduodenal
Description: as §4
In an other series of these experiments, the substances were administered through a duodenal tube. Similarly to the experiments carried out on cats, the systemic arterial blood pressure was measured by using an electromanometer and the cardiotachometer was triggered by the heart rate wave sign.
The renal artery on one side was exposed retroperitoneally and fitted with an electromagnetic flow-meter head for measuring the blood flow of the renal arterial vascular bed and for determining the local vascular resistance.

[9] = rat portal vein, 80 millimoles KCl, 37° C., read-out: Inhibition of the calcium channel, potential-mediated, IC50

T1 sequence (P22002 whole entry): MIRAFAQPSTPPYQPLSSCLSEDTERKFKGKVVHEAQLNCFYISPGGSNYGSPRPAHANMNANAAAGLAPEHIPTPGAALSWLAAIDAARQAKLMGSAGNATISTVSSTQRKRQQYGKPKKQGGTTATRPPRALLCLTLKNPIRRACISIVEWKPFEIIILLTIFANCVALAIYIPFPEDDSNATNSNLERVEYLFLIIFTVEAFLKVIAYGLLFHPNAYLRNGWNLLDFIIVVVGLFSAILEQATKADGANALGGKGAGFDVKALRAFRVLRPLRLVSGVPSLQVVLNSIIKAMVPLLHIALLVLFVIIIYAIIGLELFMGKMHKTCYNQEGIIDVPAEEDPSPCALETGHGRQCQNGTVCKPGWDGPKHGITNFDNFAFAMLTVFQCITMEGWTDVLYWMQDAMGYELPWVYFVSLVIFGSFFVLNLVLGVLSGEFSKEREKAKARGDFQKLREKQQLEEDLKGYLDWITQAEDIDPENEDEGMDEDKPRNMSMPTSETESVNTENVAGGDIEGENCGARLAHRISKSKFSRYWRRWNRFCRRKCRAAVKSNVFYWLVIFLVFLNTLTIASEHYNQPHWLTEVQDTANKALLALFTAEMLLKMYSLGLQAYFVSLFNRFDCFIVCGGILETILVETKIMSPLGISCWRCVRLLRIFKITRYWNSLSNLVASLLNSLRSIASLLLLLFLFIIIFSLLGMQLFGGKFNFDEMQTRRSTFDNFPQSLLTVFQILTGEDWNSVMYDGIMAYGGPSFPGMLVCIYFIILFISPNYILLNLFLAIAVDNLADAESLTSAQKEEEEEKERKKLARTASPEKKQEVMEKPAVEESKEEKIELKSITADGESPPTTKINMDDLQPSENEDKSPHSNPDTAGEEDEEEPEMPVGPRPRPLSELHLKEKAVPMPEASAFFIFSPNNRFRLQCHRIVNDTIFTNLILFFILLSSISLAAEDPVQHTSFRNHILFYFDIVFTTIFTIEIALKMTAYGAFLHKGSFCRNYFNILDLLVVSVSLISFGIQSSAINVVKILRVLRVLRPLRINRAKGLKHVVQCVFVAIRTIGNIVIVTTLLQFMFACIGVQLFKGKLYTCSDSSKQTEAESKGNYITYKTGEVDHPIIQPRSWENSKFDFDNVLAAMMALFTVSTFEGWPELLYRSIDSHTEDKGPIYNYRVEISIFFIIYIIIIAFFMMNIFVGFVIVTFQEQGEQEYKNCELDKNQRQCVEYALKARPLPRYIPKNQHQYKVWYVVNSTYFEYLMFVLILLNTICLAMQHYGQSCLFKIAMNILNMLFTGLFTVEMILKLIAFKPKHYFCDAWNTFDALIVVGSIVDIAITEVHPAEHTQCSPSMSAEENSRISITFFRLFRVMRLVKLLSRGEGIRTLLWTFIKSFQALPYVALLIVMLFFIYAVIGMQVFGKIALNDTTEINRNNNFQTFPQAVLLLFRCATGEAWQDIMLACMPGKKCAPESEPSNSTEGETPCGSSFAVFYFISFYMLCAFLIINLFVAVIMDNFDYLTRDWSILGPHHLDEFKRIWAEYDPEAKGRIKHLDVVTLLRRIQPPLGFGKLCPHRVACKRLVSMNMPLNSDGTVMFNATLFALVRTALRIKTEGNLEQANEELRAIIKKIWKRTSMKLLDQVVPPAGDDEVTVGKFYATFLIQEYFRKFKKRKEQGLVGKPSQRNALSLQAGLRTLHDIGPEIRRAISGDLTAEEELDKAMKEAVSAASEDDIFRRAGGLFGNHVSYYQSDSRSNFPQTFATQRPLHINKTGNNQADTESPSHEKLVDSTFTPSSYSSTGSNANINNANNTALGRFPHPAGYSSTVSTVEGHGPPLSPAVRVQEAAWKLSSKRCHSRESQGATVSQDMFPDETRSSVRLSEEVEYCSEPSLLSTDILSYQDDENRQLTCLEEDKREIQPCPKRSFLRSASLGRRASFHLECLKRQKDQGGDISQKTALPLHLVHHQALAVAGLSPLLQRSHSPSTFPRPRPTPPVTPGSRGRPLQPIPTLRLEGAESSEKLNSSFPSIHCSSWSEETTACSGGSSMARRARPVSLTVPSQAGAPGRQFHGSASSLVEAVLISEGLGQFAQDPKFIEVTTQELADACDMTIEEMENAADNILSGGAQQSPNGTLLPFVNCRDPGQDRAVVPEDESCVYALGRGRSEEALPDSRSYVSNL
T1 sequence (P54290 25-944 partner limits assumed): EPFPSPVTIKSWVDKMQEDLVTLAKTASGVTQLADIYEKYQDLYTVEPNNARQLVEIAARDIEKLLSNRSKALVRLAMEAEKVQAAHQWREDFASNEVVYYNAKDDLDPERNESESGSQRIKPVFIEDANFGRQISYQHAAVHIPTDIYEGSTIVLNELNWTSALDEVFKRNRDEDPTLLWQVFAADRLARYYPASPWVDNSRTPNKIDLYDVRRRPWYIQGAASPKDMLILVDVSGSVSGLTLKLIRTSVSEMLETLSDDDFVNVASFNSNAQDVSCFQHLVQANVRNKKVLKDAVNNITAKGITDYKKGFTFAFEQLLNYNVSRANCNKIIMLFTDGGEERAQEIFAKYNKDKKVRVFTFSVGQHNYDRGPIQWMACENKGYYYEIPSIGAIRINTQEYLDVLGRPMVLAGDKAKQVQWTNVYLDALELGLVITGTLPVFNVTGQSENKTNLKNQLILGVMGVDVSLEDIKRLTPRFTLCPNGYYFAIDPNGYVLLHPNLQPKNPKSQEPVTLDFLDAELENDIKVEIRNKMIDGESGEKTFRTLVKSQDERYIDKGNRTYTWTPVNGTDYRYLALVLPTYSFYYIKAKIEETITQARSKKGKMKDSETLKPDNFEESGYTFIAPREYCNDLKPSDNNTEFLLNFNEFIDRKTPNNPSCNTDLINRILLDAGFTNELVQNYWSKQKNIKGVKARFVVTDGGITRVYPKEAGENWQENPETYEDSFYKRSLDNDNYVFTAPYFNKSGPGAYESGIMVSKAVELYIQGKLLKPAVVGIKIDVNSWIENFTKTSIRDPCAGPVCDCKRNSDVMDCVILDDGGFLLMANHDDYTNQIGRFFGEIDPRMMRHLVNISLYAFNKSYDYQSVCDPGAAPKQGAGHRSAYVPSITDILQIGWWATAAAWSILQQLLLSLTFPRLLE
T1 sequence (P54290 945-1091 partner limits assumed): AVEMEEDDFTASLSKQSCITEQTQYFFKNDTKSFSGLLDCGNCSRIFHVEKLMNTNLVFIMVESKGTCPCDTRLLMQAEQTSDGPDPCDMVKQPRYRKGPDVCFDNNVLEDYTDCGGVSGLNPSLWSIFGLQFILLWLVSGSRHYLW

Q: Which results are given for `O=c1ccc(Cl)nn1CCCNCC1COc2ccccc2O1` (centres unmarked) [Example 2, 2-[3-(benzo[1,4]dioxan-2-yl-methylamino)-1-propyl]-6-chloro-3(2H)-pyridazinone hydrochloride]?
A: Mean arterial pressure decrease (anaesthetized cats; 1.0 mg/kg i.v.): -90 Hgmm; blood pressure lowering action (in words) (anaesthetized cats): particularly expressed; IC50 [1]: 4 µM; Inhibition of the stimulation [2]: 0%; IC50 [3, 9]: 10 µM

Q: Which “Mean arterial pressure decrease” value (anaesthetized cats; 5.0 mg/kg i.v.) does the source give for `O=c1ccc(Cl)nn1CCCNCCOc1ccccc1` [Example 4] here?
A: Its value is -70 Hgmm.

Q: And the “blood pressure lowering action (in words)” value (anaesthetized cats)?
A: Its value is “particularly expressed”.

Q: What about the IC50 [1] of the same compound?
A: Its IC50 is 0.1 µM.

Q: What about the IC50 [3, 9] of the same compound?
A: The IC50 was 0.2 µM.

Q: What about the “Decrease in the systolic blood pressure” value (conscious SH rats [4]; 50 mg/kg p.o.) of the same compound?
A: Its value is -33%.

Q: Which “inhibition of the pressor effect of epinephrine (in words)” value (shortened to “inhibition … (in words)”) [5] does the source give for `O=c1cccnn1CCCNCCOc1ccccc1` [Example 5] here?
A: The value was “significant inhibition”.

Q: And the “Mean arterial pressure decrease” value (anaesthetized cats; 5.0 mg/kg i.v.)?
A: The value was -100 Hgmm.

Q: And the “blood pressure lowering action (in words)” value (anaesthetized cats)?
A: Its value is “particularly expressed”.

Q: What about the IC50 [1] of the same compound?
A: The IC50 was 20 µM.

Q: And the “Inhibition of the stimulation” value [2]?
A: Its value is 16.2%.

Q: What about the IC50 [3, 9] of the same compound?
A: Its IC50 is 50 µM.

Q: And the “Decrease in the systolic blood pressure” value (conscious SH rats [4]; 10 mg/kg p.o.)?
A: Its value is -45%.

Q: And the “Decrease in the systolic blood pressure” value (conscious SH rats [4]; 50 mg/kg p.o.)?
A: The value was -42%.

Q: With `O=c1ccc(-n2cccc2)nn1CCCNCCOc1ccccc1` [Example 6] as the compound, how does the “Mean arterial pressure decrease” value (anaesthetized cats; 5.0 mg/kg i.v.) read?
A: Its value is -35 Hgmm.

Q: How did the “Mean arterial pressure decrease” value (anaesthetized cats; 5.0 mg/kg i.v.) turn out when `O=c1ccc(Cl)nn1CCCNCCSc1ccccc1` [Example 7] was run?
A: Its value is -35 Hgmm.

Q: How did the “inhibition … (in words)” value [5] turn out when `O=c1ccc(Cl)nn1CCCNCCOc1ccccc1Cl` [Example 8] was run?
A: Its value is “significant inhibition”.

Q: And the “Mean arterial pressure decrease” value (anaesthetized cats; 5.0 mg/kg i.v.)?
A: The value was -80 Hgmm.

Q: And the “blood pressure lowering action (in words)” value (anaesthetized cats)?
A: The value was “particularly expressed”.

Q: And the “Decrease in the systolic blood pressure” value (conscious SH rats [4]; 50 mg/kg p.o.)?
A: Its value is -18%.

Q: Which “Mean arterial pressure decrease” value (anaesthetized cats; 5.0 mg/kg i.v.) does the source give for `O=c1cccnn1CCCNCCCOc1ccccc1` [Example 9] here?
A: Its value is -55 Hgmm.

Q: For `O=c1cccnn1CCCNCCOc1ccccc1F` [Example 10], which “inhibition … (in words)” value [5] is on record?
A: Its value is “significant inhibition”.

Q: And the “Mean arterial pressure decrease” value (anaesthetized cats; 5.0 mg/kg i.v.)?
A: The value was -60 Hgmm.

Q: And the “Decrease in the systolic blood pressure” value (conscious SH rats [4]; 50 mg/kg p.o.)?
A: The value was -25%.

Q: How did the “Mean arterial pressure decrease” value (anaesthetized cats; 5.0 mg/kg i.v.) turn out when `O=c1cccnn1CCNCCOc1ccccc1` [Example 21] was run?
A: The value was -60 Hgmm.

Q: Which “Mean arterial pressure decrease” value (anaesthetized cats; 5.0 mg/kg i.v.) does the source give for `CCOC(=O)N1CCN(c2ccc(=O)n(CCNCCOc3ccccc3)n2)CC1` [Example 22] here?
A: The value was -35 Hgmm.

Q: How did the “Mean arterial pressure decrease” value (anaesthetized cats; 5.0 mg/kg i.v.) turn out when `Cc1cc(C)n(-c2ccc(=O)n(CCNCCOc3ccccc3)n2)n1` [Example 23] was run?
A: The value was -65 Hgmm.

Q: Which “Mean arterial pressure decrease” value (anaesthetized cats; 5.0 mg/kg i.v.) does the source give for `O=c1cccnn1CCNCC1COc2ccccc2O1` (centres unmarked) [Example 27] here?
A: The value was -30 Hgmm.

Q: `O=c1ccc(N2CCOCC2)nn1CCNCCOc1ccccc1` [Example 28] was tested. Which “Mean arterial pressure decrease” value (anaesthetized cats; 5.0 mg/kg i.v.) did it give?
A: Its value is -50 Hgmm.

Q: With `COC(=O)C1=C(C)NC(C)=C(C(=O)OC)C1c1ccccc1[N+](=O)[O-]` [Nifedipine, 2,6-dimethyl-4-(2-nitrophenyl)-1,4-dihydropyridine-3,5-dicarboxylic acid dimethyl ester, reference compound] as the compound, how does the IC50 [1] read?
A: The IC50 was 2 µM.

Q: What does the source list for `COc1cc2nc(N3CCN(C(=O)c4ccco4)CC3)nc(N)c2cc1OC.Cl` [Prazosine, 1-(4-amino-6,7-dimethoxy-2-quinazolinyl)-4-(2-furylcarbonyl)-piperazine hydrochloride, reference compound]?
A: pA2 ([6]; negative logarithm of the molar antagonist concentration inhibiting the agonist to 50%, norepinephrine agonist, 5 min): 9.45; Slope of the curve ([6]; rabbit aorta, norepinephrine): -0.96; IC50 [1]: 0.009 µM; hypotensive action relative to same intraduodenal dose of compound of Example 3 (or 12) (anaesthetized dogs; prazosine 1 mg/kg intraduodenal): only the half; antihypertensive effect in the 5th hour (conscious SH rats [7]; 1.25 mg/kg p.o., 5th hour): 26%; hypotension [8]: 26%; hypotension in the 5th hour ([8]; 5th hour): 20%; IC50 [3]: 500 µM; decrease in resistance of the renal artery (renal artery): about 40%

Q: How did the IC50 [1] turn out when `COc1ccc(CCN(C)CCCC(C#N)(c2ccc(OC)c(OC)c2)C(C)C)cc1OC` (centres unmarked) [Verapamil, reference compound] was run?
A: Its IC50 is 1 µM.

Q: And the hypotension (anaesthetized dogs; 10 mg/kg intraduodenal)?
A: The hypotension was 30%.

Q: And the “time of maximum effect” value (anaesthetized dogs; 10 mg/kg intraduodenal)?
A: Its value is 30 min.

Q: And the antihypertensive effect (conscious SH rats [7]; 50 mg/kg p.o.)?
A: The antihypertensive effect was 30%.
